Data reported in ChEMBL document CHEMBL1201861, “Genomics of Drug Sensitity in Cancer screening data, Wellcome Trust Sanger Institute”.

Legend:
Experiment in all cases: cells
NCI-H1395 = format: functional, cell-based, Homo sapiens; settings: Homo sapiens, NCI-H1395;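 also: cell viability assay read-out quantifying reduced proliferation of human NCI-H1395 cells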
Description: SANGER: Inhibition of human NCI-H1395 cell growth in a cell viability assay.

LXF-289 cell line = format: functional, cell-based, Homo sapiens; settings: Homo sapiens, LXF-289
Description: SANGER: Inhibition of human LXF-289 cell growth in a cell viability assay.

RKO = format: functional, cell-based, Homo sapiens; settings: Homo sapiens, RKO;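 also: growth inhibition of human RKO cells, read out with a cell viability assay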
Description: SANGER: Inhibition of human RKO cell growth in a cell viability assay.

RPMI-8226 = format: functional, cell-based; settings: Homo sapiens
Description: SANGER: Inhibition of human RPMI-8226 cell growth in a cell viability assay.

SAS = format: functional, cell-based, Homo sapiens; settings: Homo sapiens, SAS;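 also: growth inhibition of SAS cells, read out with a cell viability assay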
Description: SANGER: Inhibition of human SAS cell growth in a cell viability assay.

SW1783 = format: functional, cell-based; settings: Homo sapiens;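 also: cell growth inhibition measured with a viability assay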
Description: SANGER: Inhibition of human SW1783 cell growth in a cell viability assay.

NCI-H1793 = format: functional, cell-based, Homo sapiens; settings: Homo sapiens, NCI-H1793;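 also: cell growth inhibition, read out by a cell viability assay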
Description: SANGER: Inhibition of human NCI-H1793 cell growth in a cell viability assay.

NCI-H1155 = format: functional, cell-based; settings: Homo sapiens;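 also: cell growth inhibition measured by a viability assay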
Description: SANGER: Inhibition of human NCI-H1155 cell growth in a cell viability assay.

KYSE-510 = format: functional, cell-based, Homo sapiens; settings: Homo sapiens, KYSE-510;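 also: cell viability readout used to measure how strongly growth of the cell line is suppressed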
Description: SANGER: Inhibition of human KYSE-510 cell growth in a cell viability assay.

HT-29 = format: functional, cell-based, Homo sapiens; settings: Homo sapiens, HT-29;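 also: growth inhibition of human HT-29 cells, read out by a cell viability assay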
Description: SANGER: Inhibition of human HT-29 cell growth in a cell viability assay.

HT-144 = format: functional, cell-based, Homo sapiens; settings: Homo sapiens, HT-144
Description: SANGER: Inhibition of human HT-144 cell growth in a cell viability assay.

CAKI-1 = format: functional, cell-based, Homo sapiens; settings: Homo sapiens, CAKI-1;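 also: growth inhibition of CAKI-1 cells, measured by a cell viability assay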
Description: SANGER: Inhibition of human CAKI-1 cell growth in a cell viability assay.

SH-4 = format: functional, cell-based, Homo sapiens; settings: Homo sapiens, SH-4;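 also: growth inhibition of SH-4 cells, read out with a cell viability assay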
Description: SANGER: Inhibition of human SH-4 cell growth in a cell viability assay.

KMOE-2 = format: functional, cell-based; settings: Homo sapiens;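 also: growth inhibition of human KMOE-2 cells, read out with a cell viability assay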
Description: SANGER: Inhibition of human KMOE-2 cell growth in a cell viability assay.

SW 954 = format: functional, cell-based, Homo sapiens; settings: Homo sapiens, SW 954;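 also: growth inhibition of SW954 human cancer cells, read out as cell viability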
Description: SANGER: Inhibition of human SW954 cell growth in a cell viability assay.

TK-10 = format: functional, cell-based, Homo sapiens; settings: Homo sapiens, TK-10;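 also: growth inhibition of TK-10 cells, read out in a cell viability assay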
Description: SANGER: Inhibition of human TK10 cell growth in a cell viability assay.

EOL1 = format: functional, cell-based; settings: Homo sapiens;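 also: growth inhibition of EoL-1 cells, read out by a cell viability assay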
Description: SANGER: Inhibition of human EoL-1-cell cell growth in a cell viability assay.

T84 = format: functional, cell-based, Homo sapiens; settings: Homo sapiens, T84;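 also: growth inhibition measured with a cell viability readout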
Description: SANGER: Inhibition of human T84 cell growth in a cell viability assay.

HCC 2998 = format: functional, cell-based, Homo sapiens; settings: Homo sapiens, HCC 2998;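 also: growth inhibition of human HCC2998 cells, measured with a cell viability read-out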
Description: SANGER: Inhibition of human HCC2998 cell growth in a cell viability assay.

Panc1005 = format: functional, cell-based, Homo sapiens; settings: Homo sapiens, Panc1005;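 also: growth inhibition of human PANC-10-05 cells, measured by a cell viability assay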
Description: SANGER: Inhibition of human PANC-10-05 cell growth in a cell viability assay.

TE-1 = format: functional, cell-based, Homo sapiens; settings: Homo sapiens, TE-1;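 also: growth inhibition of the human TE-1 cell line, read out with a cell viability assay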
Description: SANGER: Inhibition of human TE-1 cell growth in a cell viability assay.

HAL-01 = format: functional, cell-based; settings: Homo sapiens;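 also: growth inhibition of human HAL-01 cells, read out with a cell viability assay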
Description: SANGER: Inhibition of human HAL-01 cell growth in a cell viability assay.

NTERA-2-cl-D1 = format: functional, cell-based, Homo sapiens; settings: Homo sapiens, NTERA-2-cl-D1;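 also: inhibition of cell growth, measured with a cell viability assay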
Description: SANGER: Inhibition of human NTERA-S-cl-D1 cell growth in a cell viability assay.

SW1088 = format: functional, cell-based, Homo sapiens; settings: Homo sapiens, SW1088;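 also: growth inhibition of human SW1088 cells, read out by a cell viability assay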
Description: SANGER: Inhibition of human SW1088 cell growth in a cell viability assay.

LB771-HNC = format: functional, cell-based, Homo sapiens; settings: Homo sapiens, LB771-HNC;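 also: growth inhibition of LB771-HNC human cells, read out with a cell viability assay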
Description: SANGER: Inhibition of human LB771-HNC cell growth in a cell viability assay.

IGR-1 = format: functional, cell-based, Homo sapiens; settings: Homo sapiens, IGR-1;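 also: growth inhibition of human IGR-1 cells, read out with a cell viability assay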
Description: SANGER: Inhibition of human IGR-1 cell growth in a cell viability assay.

DMS-273 = format: functional, cell-based, Homo sapiens; settings: Homo sapiens, DMS-273
Description: SANGER: Inhibition of human DMS-273 cell growth in a cell viability assay.

SF-539 = format: functional, cell-based, Homo sapiens; settings: Homo sapiens, SF-539;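 also: Read-out is a cell viability assay, with IC50 reflecting inhibition of cell growth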
Description: SANGER: Inhibition of human SF539 cell growth in a cell viability assay.

MDA-MB-231 = format: functional, cell-based, Homo sapiens; settings: Homo sapiens, MDA-MB-231
Description: SANGER: Inhibition of human MDA-MB-231 cell growth in a cell viability assay.

KINGS-1 = format: functional, cell-based, Homo sapiens; settings: Homo sapiens, KINGS-1;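 also: cell viability assay measuring suppression of KINGS-1 cell growth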
Description: SANGER: Inhibition of human KINGS-1 cell growth in a cell viability assay.

RCM-1 = format: functional, cell-based, Homo sapiens; settings: Homo sapiens, RCM-1;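 also: growth inhibition of the RCM-1 line, determined with a cell viability readout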
Description: SANGER: Inhibition of human RCM-1 cell growth in a cell viability assay.

SW780 = format: functional, cell-based, Homo sapiens; settings: Homo sapiens, SW780;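 also: growth inhibition of the cells, read out with a cell viability assay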
Description: SANGER: Inhibition of human SW780 cell growth in a cell viability assay.

MZ1-PC = format: functional, cell-based, Homo sapiens; settings: Homo sapiens, MZ1-PC;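 also: cell viability assay measuring growth inhibition of human MZ1-PC cells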
Description: SANGER: Inhibition of human MZ1-PC cell growth in a cell viability assay.

MZ7-mel = format: functional, cell-based, Homo sapiens; settings: Homo sapiens, MZ7-mel;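 also: growth inhibition of human MZ7-mel cells, measured by a cell viability assay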
Description: SANGER: Inhibition of human MZ7-mel cell growth in a cell viability assay.

RPMI-7951 = format: functional, cell-based, Homo sapiens; settings: Homo sapiens, RPMI-7951
Description: SANGER: Inhibition of human RPMI-7951 cell growth in a cell viability assay.

NCI-H292 = format: functional, cell-based, Homo sapiens; settings: Homo sapiens, NCI-H292;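 also: growth inhibition of NCI-H292 cells, read out with a cell viability assay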
Description: SANGER: Inhibition of human NCI-H292 cell growth in a cell viability assay.

EFM-19 = format: functional, cell-based, Homo sapiens; settings: Homo sapiens, EFM-19;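 also: growth inhibition of human EFM-19 cells, measured in a cell viability assay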
Description: SANGER: Inhibition of human EFM-19 cell growth in a cell viability assay.

KOSC-2 = format: functional, cell-based, Homo sapiens; settings: Homo sapiens, KOSC-2;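 also: growth inhibition of KOSC-2 cells, read out by a cell viability assay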
Description: SANGER: Inhibition of human KOSC-2 cell growth in a cell viability assay.

NCI-N87 = format: functional, cell-based, Homo sapiens; settings: Homo sapiens, NCI-N87;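 also: growth inhibition of human NCI-N87 cells, read out with a cell viability assay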
Description: SANGER: Inhibition of human NCI-N87 cell growth in a cell viability assay.

TE-8 = format: functional, cell-based, Homo sapiens; settings: Homo sapiens, TE-8;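 also: growth inhibition of TE-8 cells, measured with a cell viability readout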
Description: SANGER: Inhibition of human TE-8 cell growth in a cell viability assay.

BB65-RCC = format: functional, cell-based, Homo sapiens; settings: Homo sapiens, BB65-RCC;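 also: growth inhibition of the cell line, measured with a cell viability assay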
Description: SANGER: Inhibition of human BB65-RCC cell growth in a cell viability assay.

FTC-133 = format: functional, cell-based, Homo sapiens; settings: Homo sapiens, FTC-133
BB30-HNC = format: functional, cell-based, Homo sapiens; settings: Homo sapiens, BB30-HNC;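 also: growth inhibition of the cultured cell line, read out by a cell viability assay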
Description: SANGER: Inhibition of human BB30-HNC cell growth in a cell viability assay.

ACHN = format: functional, cell-based, Homo sapiens; settings: Homo sapiens, ACHN;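 also: cell viability read-out used to gauge how strongly growth of human ACHN cells is suppressed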
Description: SANGER: Inhibition of human ACHN cell growth in a cell viability assay.

L-363 = format: functional, cell-based; settings: Homo sapiens
Description: SANGER: Inhibition of human L-363 cell growth in a cell viability assay.

SK-MEL-1 = format: functional, cell-based; settings: Homo sapiens;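 also: growth inhibition of human SK-MEL-1 cells, read out by a cell viability assay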
Description: SANGER: Inhibition of human SK-MEL-1 cell growth in a cell viability assay.

SK-MEL-30 = format: functional, cell-based; settings: Homo sapiens;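 also: growth inhibition of SK-MEL-30 cells, determined with a cell viability assay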
Description: SANGER: Inhibition of human SK-MEL-30 cell growth in a cell viability assay.

8505C = format: functional, cell-based, Homo sapiens; settings: Homo sapiens, 8505C
Description: SANGER: Inhibition of human 8505C cell growth in a cell viability assay.

U-87 MG = format: functional, cell-based, U-87MG ATCC; settings: Homo sapiens;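 also: growth inhibition of the cells measured with a viability assay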
Description: SANGER: Inhibition of human U-87-MG cell growth in a cell viability assay.

ATN-1 = format: functional, cell-based; settings: Homo sapiens;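 also: growth inhibition of human ATN-1 cells, read out with a cell viability assay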
Description: SANGER: Inhibition of human ATN-1 cell growth in a cell viability assay.

DB = format: functional, cell-based; settings: Homo sapiens
Description: SANGER: Inhibition of human DB cell growth in a cell viability assay.

SMILES: Nc1ccn([C@@H]2O[C@H](CO)[C@@H](O)[C@@H]2O)c(=O)n1 [CYTARABINE]
- IC50 (NCI-H1395): > 2 µM
- IC50 (LXF-289 cell line): 0.251 µM
- IC50 (RKO): 0.599 µM
- IC50 (RPMI-8226): > 2 µM
- IC50 (SAS): 0.108 µM
- IC50 (SW1783): > 2 µM
- IC50 (NCI-H1793): > 2 µM
- IC50 (NCI-H1155): 0.397 µM
- IC50 (KYSE-510): 0.306 µM
- IC50 (HT-29): > 2 µM
- IC50 (HT-144): 1.23 µM
- IC50 (CAKI-1): 0.12 µM
- IC50 (SH-4): > 2 µM
- IC50 (KMOE-2): 0.944 µM
- IC50 (SW 954): > 2 µM
- IC50 (TK-10): 1.73 µM
- IC50 (EOL1): 0.803 µM
- IC50 (T84): > 2 µM
- IC50 (HCC 2998): > 2 µM
- IC50 (Panc1005): 0.802 µM
- IC50 (TE-1): > 2 µM
- IC50 (HAL-01): 0.328 µM
- IC50 (NTERA-2-cl-D1): 0.159 µM
- IC50 (SW1088): > 2 µM
- IC50 (LB771-HNC): > 2 µM
- IC50 (IGR-1): 1.78 µM
- IC50 (DMS-273): 1.46 µM
- IC50 (SF-539): 0.717 µM
- IC50 (MDA-MB-231): > 2 µM
- IC50 (KINGS-1): > 2 µM
- IC50 (RCM-1): > 2 µM
- IC50 (SW780): 1.32 µM
- IC50 (MZ1-PC): 1.8 µM
- IC50 (MZ7-mel): 0.417 µM
- IC50 (RPMI-7951): 0.34 µM
- IC50 (NCI-H292): 0.114 µM
- IC50 (EFM-19): > 2 µM
- IC50 (KOSC-2): 0.643 µM
- IC50 (NCI-N87): > 2 µM
- IC50 (TE-8): 0.219 µM
- IC50 (BB65-RCC): 0.11 µM
- IC50 (FTC-133): 1.39 µM
- IC50 (BB30-HNC): > 2 µM
- IC50 (ACHN): 0.37 µM
- IC50 (L-363): 1.34 µM
- IC50 (SK-MEL-1): > 2 µM
- IC50 (SK-MEL-30): > 2 µM
- IC50 (8505C): > 2 µM
- IC50 (U-87 MG): 1.74 µM
- IC50 (ATN-1): 0.366 µM
- IC50 (DB): 0.246 µM

SMILES: CC(=O)O[C@@]12CO[C@@H]1C[C@H](O)[C@@]1(C)C(=O)[C@H](O)C3=C(C)[C@@H](OC(=O)[C@H](O)[C@@H](NC(=O)OC(C)(C)C)c4ccccc4)C[C@@](O)([C@@H](OC(=O)c4ccccc4)[C@H]21)C3(C)C [DOCETAXEL]
- IC50 (NCI-H1395): 0.00396 µM
- IC50 (LXF-289 cell line): 0.000758 µM
- IC50 (RKO): 0.000989 µM
- IC50 (RPMI-8226): 0.00497 µM
- IC50 (SAS): 0.00134 µM
- IC50 (SW1783): 0.0057 µM
- IC50 (NCI-H1793): > 0.01 µM
- IC50 (NCI-H1155): > 0.01 µM
- IC50 (KYSE-510): 0.00084 µM
- IC50 (HT-29): 0.0028 µM
- IC50 (HT-144): 0.000157 µM
- IC50 (CAKI-1): > 0.01 µM
- IC50 (SH-4): 0.00322 µM
- IC50 (KMOE-2): > 0.01 µM
- IC50 (SW 954): 0.000823 µM
- IC50 (TK-10): 0.00977 µM
- IC50 (EOL1): 0.00173 µM
- IC50 (T84): > 0.01 µM
- IC50 (HCC 2998): 0.00408 µM
- IC50 (Panc1005): > 0.01 µM
- IC50 (TE-1): 0.00216 µM
- IC50 (HAL-01): > 0.01 µM
- IC50 (NTERA-2-cl-D1): 0.000773 µM
- IC50 (SW1088): 0.00295 µM
- IC50 (LB771-HNC): > 0.01 µM
- IC50 (IGR-1): 0.00641 µM
- IC50 (DMS-273): 0.000674 µM
- IC50 (SF-539): 0.000302 µM
- IC50 (MDA-MB-231): 0.0073 µM
- IC50 (KINGS-1): 0.00117 µM
- IC50 (RCM-1): > 0.01 µM
- IC50 (SW780): 0.000587 µM
- IC50 (MZ1-PC): 0.00118 µM
- IC50 (MZ7-mel): > 0.01 µM
- IC50 (RPMI-7951): 0.000448 µM
- IC50 (NCI-H292): 0.000159 µM
- IC50 (EFM-19): 0.00215 µM
- IC50 (KOSC-2): 0.000255 µM
- IC50 (NCI-N87): > 0.01 µM
- IC50 (TE-8): 0.000366 µM
- IC50 (BB65-RCC): 0.00308 µM
- IC50 (FTC-133): 0.000489 µM
- IC50 (BB30-HNC): 0.00105 µM
- IC50 (ACHN): > 0.01 µM
- IC50 (L-363): 0.00376 µM
- IC50 (SK-MEL-1): > 0.01 µM
- IC50 (SK-MEL-30): 0.00732 µM
- IC50 (8505C): 0.000854 µM
- IC50 (U-87 MG): 0.00355 µM
- IC50 (ATN-1): > 0.01 µM
- IC50 (DB): 0.00178 µM
